Measurements: publication PMC11579929, “Proline-Modified RWn Peptides: Enhanced Antifungal Efficacy and Synergy with Conventional Antibiotics for Combating Resistant Fungal Infections” (ACS Omega, 2024)
Values after ≈ are worked out from the molar mass of the structure shown. Like-named read-outs stand apart in the source and are kept apart here. Where no end group is shown, it is not given here.

Key:
[1] = Cytotoxicity assay; assay type: cell-based; settings: human, HEK293 cells
Method: (§1) The antifungal activities were evaluated by determining the minimum inhibitory concentration (MIC) against C. albicans [ATCC 90028] and C. neoformans [ATCC 208821] that inhibits 99% fungal growth. Cytotoxicity and hemolytic activities were assessed against human embryonic kidney (HEK293) cells and human red blood cells, respectively. The antimicrobial screening was performed by The Community for Antimicrobial Drug Discovery (CO-ADD).[31] Cytotoxicity assays were performed on active compounds to assess their selectivity toward microbial cells. The protocol for the cytotoxicity assay is described in the Supporting Information.[28]

[2] = tested on: C. albicans [ATCC 90028]; experiment: microbe, parasite or virus in culture; assay type: cell-based, Candida albicans; settings: for MIC: Candida albicans
[3] = tested on: human red blood cells; experiment: Hemolytic activity; assay type: cell-based; settings: for Hemolytic Toxicity (<32 mg/mL): yes/no below as printed
Method: as §1, with “(CO-ADD).[31]” for “(CO-ADD).[31] Cytotoxicity assays were performed on active compounds to assess their selectivity toward microbial cells. The protocol for the cytotoxicity assay is described in the Supporting Information.[28]”

[4] = tested on: C. neoformans [ATCC 208821]; experiment: microbe, parasite or virus in culture; assay type: cell-based, Cryptococcus neoformans; settings: for MIC: Cryptococcus neoformans
[5] = tested on: HEK293 and RBC; experiment: Toxicity (HEK293 and RBC), stated jointly; assay type: cell-based, human
Method: as §1

Row | C. albicans MIC ([2]; ATCC 90028, 3 h) [µg/mL] | Compound | CC50 [1] [µg/mL] | Hemolytic Activity ([3]; Table 2, human red blood cells) [µg/mL] | Hemolytic Toxicity (<32 mg/mL) [3] | Hemolytic Activity ([3]; Table 3, unit not given) | other results
1 | 8 | N=C(N)NCCC[C@H](NC(=O)[C@H](Cc1c[nH]c2ccccc12)NC(=O)[C@H](CCCNC(=N)N)NC(=O)[C@H](Cc1c[nH]c2ccccc12)NC(=O)[C@H](CCCNC(=N)N)NC(=O)[C@H](Cc1c[nH]c2ccccc12)NC(=O)[C@H](CCCNC(=N)N)NC(=O)[C@H](Cc1c[nH]c2ccccc12)NC(=O)[C@H](CCCNC(=N)N)NC(=O)[C@H](Cc1c[nH]c2ccccc12)NC(=O)[C@@H](N)CCCNC(=N)N)C(=O)N[C@@H](Cc1c[nH]c2ccccc12)C(N)=O [RW6, (RW)6-NH2] | > 32 | ≤0.25 | Yes |  | 
2 | >32 | RWRWPRWRW-NH2 [RW4P] | > 32 |  |  | >32 | C. neoformans MIC ([4]; ATCC 208821, 3 h): ≤0.25 µg/mL
3 |  | CN[C@H](CC(C)C)C(=O)N[C@H]1C(=O)N[C@@H](CC(N)=O)C(=O)N[C@H]2C(=O)N[C@H]3C(=O)N[C@H](C(=O)N[C@H](C(=O)O)c4cc(O)cc(O)c4-c4cc3ccc4O)[C@H](O)c3ccc(c(Cl)c3)Oc3cc2cc(c3O[C@@H]2O[C@H](CO)[C@@H](O)[C@H](O)[C@H]2O[C@H]2C[C@](C)(N)[C@H](O)[C@H](C)O2)Oc2ccc(cc2Cl)[C@H]1O [VAN, vancomycin, reference compound] |  |  |  |  | MIC ([2]; ATCC90028, read-out: C. albicans MIC): > 32 µg/mL; MIC ([4]; ATCC208821, read-out: C. neoformans MIC): > 32 µg/mL
4 |  | CC1(C)S[C@@H]2[C@H](NC(=O)[C@H](N)c3ccccc3)C(=O)N2[C@H]1C(=O)O [AMP, ampicillin, reference compound] |  |  |  |  | MIC ([2]; ATCC90028, antibiotic alone or 4.75 mg antibiotic mixed with 0.25 mg of peptide, read-out: C. albicans MIC): > 32 µg/mL; MIC ([4]; ATCC208821, antibiotic alone or 4.75 mg antibiotic mixed with 0.25 mg of peptide, read-out: C. neoformans MIC): > 32 µg/mL
5 |  | RWRWPRWRWPRWRW-NH2 [RW6–2P] | > 32 |  |  | >32 | Toxicity in HEK293 or red blood cells (in words) [5]: without any detectable toxicity
6 |  | RWRWRWPRWRWRW-NH2 [RW6P] | > 32 |  |  | >32 | Toxicity in HEK293 or red blood cells (in words) [5]: without observable toxicity
7 | >32 | RWRWRWRWPRWRWRWRW-NH2 [RW8P] | > 32 |  |  | >32 | C. neoformans MIC ([4]; ATCC 208821, 3 h): ≤0.25 µg/mL
8 |  | RWRWRWRW-NH2 [RW4, (RW)4-NH2] | > 32 | >32 | No |  | 
9 | 32 | RWRWRWRWRWRWRWRW-NH2 [RW8, (RW)8-NH2] | > 32 | 0.452 | Yes |  | C. neoformans MIC ([4]; ATCC 208821, 3 h): 0.5 µg/mL
10 |  | OC(Cn1cncn1)(Cn1cncn1)c1ccc(F)cc1F [Fluconazole, reference compound] |  |  |  |  | MIC ([2]; ATCC90028, BMD method, YNB, 384 NBS plates, average of ≥ 6 independent biological replicates, antifungal standard, read-out: MIC Candida albicans ATCC 90028): 0.125 µg/mL (≈ 0.408 µM); MIC ([4]; ATCC208821, BMD method, YNB, 384 NBS plates, average of ≥ 6 independent biological replicates, antifungal standard, read-out: MIC Cryptococcus neoformans H99 ATCC 208821): 8 µg/mL (≈ 26.1 µM)
11 |  | CC[C@H](C)[C@H](N)C(=O)N[C@@H](CC(C)C)C(=O)N1CCC[C@H]1C(=O)N[C@@H](Cc1c[nH]c2ccccc12)C(=O)N[C@@H](CCCCN)C(=O)N[C@@H](Cc1c[nH]c2ccccc12)C(=O)N1CCC[C@H]1C(=O)N[C@@H](Cc1c[nH]c2ccccc12)C(=O)N[C@@H](Cc1c[nH]c2ccccc12)C(=O)N1CCC[C@H]1C(=O)N[C@@H](Cc1c[nH]c2ccccc12)C(=O)N[C@@H](CCCNC(=N)N)C(=O)N[C@@H](CCCNC(=N)N)C(N)=O [Indolicidin, reference compound] |  | >32 | No |  | CC50 ([1]; Table 2, read-out: HEK293 Toxicity): > 32 µg/mL; C. albicans MIC ([2]; ATCC 90028, concentration that inhibits 99% fungal growth, peptide alone): >32 µg/mL; C. neoformans MIC ([4]; ATCC 208821, concentration that inhibits 99% fungal growth, peptide alone): >32 µg/mL
